{"source": "patent US20160367464A1", "about": "“METHOD AND COMPOSITION FOR IMPROVING SKIN CONDITIONS COMPRISING HUMAN PLACENTAL LACTOGEN AS AN ACTIVE INGREDIENT” (Regeron, Inc., priority 2012, published 2016)", "type_in_all_cases": "in vivo, mouse", "key": {"[1]": {"system": "UVB-irradiated SKH-1 female nude mice", "assay": "Wrinkle improving effects in UVB-irradiated SKH-1 hairless nude mice (Donald method)", "set-up": "key: —: No wrinkle formation; *: Slightly deep and thick wrinkle; **: Slightly to moderately deep and thick wrinkle; ***: Moderately deep and thick wrinkle; ****: Moderately to severely deep and thick wrinkle; *****: Severely deep and thick wrinkle", "settings": "SKH-1 nude mice, U.V. irradiation Yes, 0.1% retinoic acid in 15% EtOH", "protocol": "The 4-week-old SKH-1 female nude mice were purchased from Douyul Biotech, Sungnam, Korea). The animal breeding chambers were kept at 24±0.2° C. and relative humidity at 50±10% in a 12-hr light/12-hr dark cycle. The animals were permitted free access to solid feed (Central Lab. Animal Inc., Seoul, Korea) and water sterilized by irradiation and acclimated for about 2 weeks before divided them into 7 groups by random selection.\nIn order to induce wrinkle formation on the backside of the nude mice, UVB was irradiated to the mice three times a week for 11 weeks using the VLX-3W stimulator (Vilber Lourmat, Marne la Vallee, France) in the protocol: 30 mJ/cm^2 for the weeks 1 and 2, 40 mJ/cm^2 for the weeks 3 and 4, 50 mJ/cm^2 for the weeks 5 through 9, and 60 mJ/cm^2 for the weeks 10 and 11. […]\nThe wrinkle-improving effect was evaluated according to the Donald method (Hyun-Seok Kim et. al, Mech. Ageing Dev. 126:1255-61, 2005). […] In the present invention, the effects of Lipo-hPL and other skin-conditioning agents on wrinkle formation were evaluated by observing changes of the thickness and depth of wrinkles before and after treatments."}, "[2]": {"system": "Nc/Nga mice with short term atopic dermatitis", "assay": "Skin damage score, short term TNCB-induced atopic dermatitis", "settings": "short term (6 weeks); for Overall damage: sum of erythema, edema, erosion, dryness divided by number of animals (3)", "protocol": "(§1) Four weeks old male Nc/Nga mice were purchased from Orientbio Inc. (Korea) and bred at 24±2° C. and 50±10% relative humidity under 12 hours light/dark cycles. Animals were subject to 1-week acclimating period prior to the experiments.\nFirst, the dorsal area of Nc/Nga mice was shaved, which was sensitized by applying 5% TNCB 150 µl. Then 1% TNCB solution made in olive oil was applied to the sensitized area once every week for 6 weeks.\n(§2) Lipo-hPL (20 μg/ml) was topically applied 5 times per week for 6 weeks (short term) and 13 weeks (long term).\n(§3) The skin damage was classified to 4 types as described in the Table 8. Based on the pictures taken every week for the inflamed dorsal area, the severity of the damage was evaluated and scored based on the 4 levels as shown below."}, "[3]": {"system": "Nc/Nga mice with long term atopic dermatitis", "assay": "Skin damage score, long term TNCB-induced atopic dermatitis", "protocol": "as §1\nThe dorsal area of Nc/Nga mice was shaved, which was sensitized by applying 5% TNCB 150 µl. Then 1% TNCB solution made in olive oil was applied to the sensitized area for total 22 times over the period of 13 weeks.\nas §2, §3"}, "serum IgE": {"system": "serum IgE", "assay": "Serum IgE measurement (ELISA) in Nc/Nga mice with atopic dermatitis", "settings": "TNCB-treated Nc/Nga mice, short term topical application (FIG. 13), Lipo-hPL 20 μg/ml", "excerpt": "Atopic individuals can have up to 10 times the normal level of IgE in their blood, even though this may not be a requirement for symptoms to occur as has been seen in asthmatics with normal IgE levels in their blood—recent research has shown that IgE production can occur locally in the nasal mucosa (Takhar P et al. (2005) J Immunol 174 (8): 5024-32). After the completion of the Lipo-hPL treatment for the induced inflammation, blood was drawn from the great saphenons vein and the serum was obtained by centrifugation. The serum IgE was measured using the IgE ELISA kit (GomaBiotech, Korea)."}, "[4]": {"system": "Nc/Nga mice with atopic dermatitis", "assay": "Skin thickness measurement on H&E stained slides, Nc/Nga mice with atopic dermatitis", "excerpt": "Upon the completion of all necessary treatments, affected areas of the dorsal skin was severed and fixed in 4% formaldehyde and set into a block using paraffin. The paraffin block was cut into 10 um thin slices using microtome, which were set on glass slides followed by stained with hematoxylin and eosin (H&E) before subject to the microscopic observation.\nThe tissue slides stained with H&E were photographed in order to measure the skin thickness ranging from exoderm, fat layer to the muscle layer using the appropriate software provided for the microscope utilized for the measurement of skin thickness."}, "[5]": {"settings": "score 0-3 per animal summed over 3 animals, Lipo-hPL 20 μg/ml topical 5 times per week"}, "[6]": {"settings": "long term (13 weeks), scores summed over 2 animals, Lipo-hPL 20 μg/ml topical 5 times per week"}}, "note": "“And” between values parts separate entries of the source, which are not always exact repeats. Identical values can stand only once."}
{"compound": "CC1=C(/C=C/C(C)=C/C=C/C(C)=C/C(=O)O)C(C)(C)CCC1", "note": "[Retinoic acid, retinoic acid]", "values": [{"measurement": "Changes in wrinkle depth and thickness", "setting": "[1]; Appendix Table 5, topical 11 weeks, 20 μg/ml Lipo-hPL, 4.1 μg/ml Lipo-his-hPL", "value": "**"}, {"measurement": "Changes in wrinkle depth and thickness", "setting": "[1]; topical 5 times a week for 11 weeks, 20 µg/ml Lipo-hPL, 4 µg/ml Lipo-his-hPL", "value": "**"}]}
{"compound": "C=CC[C@@H]1/C=C(\\C)C[C@H](C)C[C@H](OC)[C@H]2O[C@@](O)(C(=O)C(=O)N3CCCC[C@H]3C(=O)O[C@H](/C(C)=C/[C@@H]3CC[C@@H](O)[C@H](OC)C3)[C@H](C)[C@@H](O)CC1=O)[C@H](C)C[C@@H]2OC", "note": "[Tacrolimua (FK506), Tacrolimua]", "values": [{"measurement": "Dryness", "setting": "[2]; [5]", "value": 3}, {"measurement": "Edema", "setting": "[2]; [5]", "value": 0}, {"measurement": "Erosion", "setting": "[2]; [5]", "value": 3}, {"measurement": "Erythema", "setting": "[2]; [5]", "value": 3}, {"measurement": "Overall damage", "setting": "[2]", "value": 3.0}, {"measurement": "Overall damage", "setting": "[2]; listed as FK506", "value": "3.0±0.3"}, {"measurement": "Dryness", "setting": "[3]; [6]", "value": 3}, {"measurement": "Edema", "setting": "[3]; [6]", "value": 1.5}, {"measurement": "Erosion", "setting": "[3]; [6]", "value": 3.5}, {"measurement": "Erythema", "setting": "[3]; [6]", "value": 1.5}, {"measurement": "Overall damage", "setting": "[3]; long term (13 weeks), sum of erythema, edema, erosion, dryness divided by number of animals (2)", "value": "4.75 and 4.8"}, {"measurement": "Long term skin damages score", "setting": "[3]; long term, out of 10 as the most severe damage", "value": "2.4±0.7"}, {"measurement": "IgE", "setting": "serum IgE", "value": 107.1, "unit": "ng/mL"}, {"measurement": "Exodermal thickness of animals treated with TNCB only relative to treated animals", "setting": "[4]", "value": "approximately 10 folds"}, {"measurement": "Average skin thickness (epidermis, dermis and subcutaneous layer)", "setting": "[4]; TNCB-treated Nc/Nga mice, long term topical application (FIG. 16)", "value": "408.0±23.4", "unit": "μm"}]}
